This passage reports fold change (FC), inhibition and Activity results from ChEMBL document CHEMBL4419180, “Compositions and methods for treating g protein coupled receptor mediated conditions” (2018).

The source made the active and inactive calls. The calls are words filed in the database; no cut-off is given here. Non-standard residues stand in square brackets, D forms with d. Residues, ends and D or L forms follow the SMILES beside them. *: point of attachment. Boc = CC(C)(C)OC(=O)*; OBn = c1ccc(CO*)cc1; For = O=C*

In experiment [1] the target is Mas-related G-protein coupled receptor member X4 (Homo sapiens) (UniProt Q96LA9). The experiment can be described thus: Inverse agonist activity at recombinant human MrgprX4 expressed in HEK293 cells assessed as reduction in inositol phosphate accumulation incubated for 1 hr at 37 degC followed by incubation for 30 mins at room temperature by HTRF assay relative to baseline. Type of experiment: functional, cell-based. (In general: In TR-FRET formats the signal depends on donor and acceptor labels being close together.)
Chain of Mas-related G-protein coupled receptor member X4 (Homo sapiens) (Q96LA9 whole entry): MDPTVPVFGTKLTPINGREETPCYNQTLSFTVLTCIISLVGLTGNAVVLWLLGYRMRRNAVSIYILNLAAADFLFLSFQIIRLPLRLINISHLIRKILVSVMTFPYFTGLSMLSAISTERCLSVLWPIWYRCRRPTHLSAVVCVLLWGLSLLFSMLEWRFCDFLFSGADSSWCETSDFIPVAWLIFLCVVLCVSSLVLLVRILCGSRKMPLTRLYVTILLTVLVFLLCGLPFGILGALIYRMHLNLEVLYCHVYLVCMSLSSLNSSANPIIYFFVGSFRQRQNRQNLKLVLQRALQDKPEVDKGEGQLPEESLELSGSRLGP

Experiment [2] shares this target. The experiment can be described thus: Antagonist activity at recombinant human MrgprX4 expressed in HEK293 cells assessed as blockade of bilirubin-induced inositol phosphate accumulation incubated for 1 hr at 37 degC followed by incubation for 30 mins at room temperature before bilirubin addition by HTRF assay relative to control. Type of experiment: functional, cell-based.

Experiment [3] relates to Mus musculus. The experiment can be described thus: Suppression of chloroquine-induced pruritus in mouse assessed as reduction in scratching bouts in 30 mins at 1 mg/kg co-injected with chloroquine. It counts as functional, organism-based.
In experiment [4] the test system is Mus musculus. The experiment can be described thus: Suppression of ANIT-induced cholestatic liver injury in mouse assessed as effect on ALP level at 1 mg/kg, ip. It counts as functional, organism-based.
Experiment [5] concerns Mus musculus. The experiment can be described thus: Suppression of ANIT-induced cholestatic liver injury in mouse assessed as effect on ALT level at 1 mg/kg, ip. It counts as functional, organism-based.
For experiment [6], the system named is Mus musculus. The experiment can be described thus: Suppression of ANIT-induced cholestatic liver injury in mouse assessed as effect on total bilirubin at 1 mg/kg, ip. Type of experiment: functional, organism-based.
In experiment [7] the test system is Mus musculus. The experiment can be described thus: Suppression of ANIT-induced cholestatic liver injury in mouse assessed as effect on AST level at 1 mg/kg, ip. Type of experiment: functional, organism-based.
For experiment [8], the system named is Mus musculus. The experiment can be described thus: Suppression of bilirubin-induced pruritus in mouse assessed as reduction in scratching bouts in 30 mins at 0.25 mg/kg co-injected with bilirubin. It counts as functional, organism-based.
The test system of experiment [9] is Mus musculus. The experiment can be described thus: Suppression of ANIT-induced cholestatic pruritus in mouse assessed as reduction in scratching bouts in 30 mins at 1 mg/kg, ip 30 mins before behavioral analysis. It counts as functional, organism-based.

In the case of `Cc1nc(-c2ccnn2Cc2ccc(Cl)cc2)[nH]c1-c1ccccc1`, in experiment [1], the fold change (FC) stood at 3. Further, the inhibition (commonly the drop in the measured response relative to a control, in per cent) in experiment [2] was 85%.

On to `CC(C)(C)OC(=O)N[C@@H](CCC(N)=O)C(=O)N[C@H](Cc1cn(C=O)c2ccccc12)C(=O)N[C@@H](Cc1ccccc1)C(=O)OCc1ccccc1` (Boc-Gln-[dW](For)-Phe-OBn), for which the result in experiment [3], in experiment [4], in experiment [5], in [6] and in [7] was inactive. In addition, the outcome in [8] and in experiment [9] was Active.

For the compound `O=C(NCc1cc2ccccc2[nH]1)c1cc(-c2ccccn2)nc2ccc(Br)cc12`, in experiment [1], the fold change (FC) was 2 to 3. In experiment [2], the inhibition worked out at 85%.

Turning to `Cc1c(C(=O)NCc2ccccc2C(F)(F)F)ncn1Cc1ccc(Cl)cc1`, the fold change (FC) in experiment [1] came out at 3. Moreover, in experiment [2], the inhibition worked out at 85%.

On to `Nc1nc2ccccc2n1CCOc1ccccc1Cl`, for which the fold change (FC) in experiment [1] lay within 2 to 3. The inhibition in experiment [2] lay within 70 to 85%.
